Where two headings read alike, the source gives them in different places.
Experiments:
[1] = test system: ova-sensitized, ova-challenged mice; test: Bronchodilator assay in ovalbumin-sensitized mice (Penh, methacholine); format: in vivo, mouse; details: for log10AUC (penh): bronchodilator dosing paradigm
Method: Male BALB/c mice were ordered from Charles River Laboratories (Raleigh, N.C.). The animals were approximately 19 to 21 grams at time of receipt. Upon arrival, the animals were randomized into groups of five males per cage and assigned to a dosing group. Animals were quarantined for 7 days under test conditions. They were observed daily for general health status and ability to adapt to the water bottles.
Animals were sensitized on day 0 and 14 of study by an intraperitoneal injection with 20 μg of ovalbumin (ova) and 2.0 mg aluminum hydroxide (alum) which initiates the development of a specific T-helper (Th) cells type 2 resulting in asthmatic animals. One group of animals received an injection of saline to use as non-asthmatic control animals. All animals were challenged with aerosolized 1% ova once daily for 25 minutes on days 28, 29, and 30 (Zosky, et al. Respiratory Research. 2004; 5:15). Aerosol challenge consists of using an Aerogen Aeroneb nebulizer and controller with a particle size of 4-6 μm mass median aerodynamic diameter (MMAD) with a distribution of 400 μl per minute. This aerosol challenge is necessary to target the Th2-driven allergic inflammation in the lower airways.
The test compounds and the control vehicle were administered to animals on the day of airway hyperreactivity evaluation 30 minutes to 1 hour before the evaluation to determine the bronchodilator effects of the compounds according to the bronchodilator dosing paradigm (FIG. 8). Compounds were administered p.o. (orally), i.p. (intraperitoneally) at 15 μMol/kg unless otherwise noted (Table 6). Alternatively, compounds were administered i.t. (intratracheally) at varying doses as shown (FIG. 9). On day 32 of the experiment, airway hyperreactivity was evaluated by placing conscious, unrestrained animals in a whole body plethysmometer (Buxco Wilmington, N.C.) and exposing them to escalating doses of nebulized methacholine, a known bronchial constrictor which acts through the muscarinic receptors of the lungs, (doses: 0.325-50 mg/ml). Exposure to the methacholine doses consisted of a 3 minute period during which a nebulizer was aerosolizing the methacholine and an additional 3 minute period following the cessation of nebulization. Over this 6 minute period, the plethysmometer monitors and generates numerical values for all parameters of the breath pattern. Enhanced pause (Penh), a unitless index of airway hyperreactivity, is derived from the expiratory side of the respiratory waveform measured via the plethysmograph and is used as an indirect measure of airway resistance and hyperreactivity. […] Following the methacholine dose response, all animals were anesthetized, bled and euthanized.
Within each experiment, a mouse was given a single compound and exposed to increasing doses of methacholine [0 (baseline), 0.375, 0.75, 1.5, 3, 6, 12, 25, 50 mg/ml]. The Penh value at each of the dose levels of methacholine represents the 6-minute average response. Change from baseline (CFB) in Penh was calculated at each methacholine dose and the area under the curve (AUC) for these CFB values was calculated using the trapezoidal rule. This same approach was applied for each mouse across multiple experiments.
For statistical analyses, a linear mixed-effects model where the response was the log 10 transformed value of AUC described above was used. Data from equal experimental conditions across experiments performed on different days were pooled for statistical analysis and data reporting. The various compounds were compared adjusting for the log 10-transformed baseline value of Penh and the chamber (1 of 10) of the plethysmometer each mouse was contained in during an experiment. A random intercept for each experiment was assumed to account for possible similarities of the results obtained from a given experiment (i.e., as a “blocking effect”). […] Computations were performed using PROC MIXED (SAS Version 9.1). […]

rat trachea rings = test: Tracheal relaxation assay (carbachol precontracted rings); details: for Percentage of carbachol-induced contraction at 1 μM compound, Avg % / Percentage of carbachol-induced contraction at 10 μM compound, Avg %: 1 μM carbachol; for Trachael Ring Contraction, %: average percentage of carbachol-induced rat tracheal ring contraction at 1 μM of test compound; for IC50: read-out: IC50 Avg;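 for all read-outs here: isometric tension of rat tracheal rings in Krebs buffer with 1 µM indomethacin, compounds added cumulatively at 30 min intervals, basal tension subtracted, fit to Hill equation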
Method: The effects of compounds to induce relaxation of pre-contracted rat trachealis were determined. […] Trachea were excised, cleaned of connective tissue and cut into cylindrical segments of 2-3 mm length. Two stainless steel wires were guided through the lumen of the tracheal ring. One wire was fixed in the tissue bath and the other was connected to a force transducer via surgical silk. […] Indomethacin (1 μM), a cyclooxygenase inhibitor, was added to the Krebs buffer and was present throughout the experiments. Contractile tensions were measured using an isometric force transducer (Grass Instruments) and signals were analyzed using specialized software (Chart v5.5, ADInstruments). The preparations were allowed to equilibrate at a resting tension of 0.3 to 0.5 gm prior to two challenges with 60 mM KCl to assess tissue viability. After washing, tissues were treated with 1 μM carbachol for 10 to 15 minutes to induce a contractile response. Test Compounds were added cumulatively to the bath every 30 minutes and reductions in tension were recorded. Basal tension was subtracted from all values and data were reported as a percentage of the maximal carbachol-induced contraction. Data were fit to the Hill equation using GraphPad Prism v5 software.

[2] = Rat oral pharmacokinetics (plasma); format: in vivo
Method: Plasma (EDTA K2 anticoagulant) was collected from male, cannulated, CD Sprague Dawley rats to determine the pharmacokinetics of formulations containing compound inhibitors of Rho kinase. Each animal was dosed orally with a 4 ml/kg solution or suspension of each test compound in 10 mM acetate buffered saline, pH 4.5 at a final concentration range of 20-30 μmol/kg. Blood was collected at 0.25, 0.5, 1, 2, 4, 6, 8, and 24 hours. Plasma samples were assayed for the concentration of the test compound using an on-line, solid phase extraction LC/MS/MS analysis system.
Samples were analyzed on a QSTAR Elite, hybrid quadrupole time-of-flight mass spectrometer (Applied Biosystems, Framingham, Mass.) coupled with a Symbiosis Pharma integrated, on-line SPE-HPLC system (Spark Holland Inc., Plainsboro, N.J.). Analyst QS 2.0 software was used for instrument control, data acquisition and processing. […] Mobile Phase A consisted of 0.1% ammonium hydroxide in water and Mobile Phase B consisted of 0.1% formic acid in acetonitrile. Pharmacokinetic analyses were performed using WinNonlin software version 5.2 (Pharsight Corporation, Mountain View, Calif.).
As determined from the plasma concentration versus time curves, the time to peak and peak exposure are represented by the values Tmax and Cmax, respectively. The AUC values (nM*hr) shown were calculated as the areas under the plasma concentration versus time curves from time zero through the time of the last observable value and represent the total exposure of the compound over the course of the study. Half-life values or the amount of time required for the plasma levels of the compound to decline to half the initial value are represented as t1/2.

[3] = test system: ova-sensitized, ova-challenged mice; test: Prevention of airway hyperreactivity development, anti-inflammatory dosing paradigm (Penh); format: in vivo, mouse; details: intratracheal once a day, days 27 to 30 (1.091) or 27 to 31
ERK2 = target: T1, ERK2 (Homo sapiens, UniProt P28482); test: Kinase panel screen (KinaseProfiler), ERK2; format: biochemical; details: 10 μM ATP
T1 construct: purchased Upstate, Millipore Bioscience Division (KinaseProfiler service)
T1 sequence (P28482 whole entry): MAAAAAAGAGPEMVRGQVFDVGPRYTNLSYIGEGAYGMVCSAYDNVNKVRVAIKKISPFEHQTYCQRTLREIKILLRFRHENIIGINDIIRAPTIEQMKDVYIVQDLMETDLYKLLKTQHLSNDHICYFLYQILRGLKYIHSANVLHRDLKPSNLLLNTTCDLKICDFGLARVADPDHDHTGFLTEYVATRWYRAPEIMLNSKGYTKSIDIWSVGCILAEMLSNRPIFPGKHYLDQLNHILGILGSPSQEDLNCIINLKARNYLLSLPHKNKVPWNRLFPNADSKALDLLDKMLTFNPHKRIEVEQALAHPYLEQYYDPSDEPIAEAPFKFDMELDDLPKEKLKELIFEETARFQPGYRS
Method: (§1) Compounds of Formulae I and II were examined for activity against a selected panel of kinases using the KinaseProfiler™ enzyme profiling services (Upstate, Millipore Bioscience Division). Percent kinase activity at 10 μM and 1 μM test compound and 10 μM ATP was determined against 40 wild-type recombinant human kinases according to Upstate's standard protocol: ASK1, BTK, CSK, c-RAF, GCK, GSK3β, IKKα, IKKβ, IRAK1, IRAK4, JNK1α1, JNK2α2, JNK3, ERK1, ERK2, MAPKAP-K2, MAPKAP-K3, MEK1, MKK4, MKK6, MKK7β, Mnk2, MSK1, PAK3, PDK1, PRAK, ROCK1, Rsk2, SAPK2a, SAPK2b, SAPK3, SAPK4, SRPK1, SRPK2, Syk, TAK1, TBK1, PI3-Kβ, PI3-Kγ, PI3-Kδ.

ERK1 = target: T2, ERK1 (Homo sapiens, UniProt P27361); test: Kinase panel screen (KinaseProfiler), ERK1; format: biochemical; details: 10 μM ATP
T2 construct: purchased Upstate, Millipore Bioscience Division (KinaseProfiler service)
T2 sequence (P27361 whole entry): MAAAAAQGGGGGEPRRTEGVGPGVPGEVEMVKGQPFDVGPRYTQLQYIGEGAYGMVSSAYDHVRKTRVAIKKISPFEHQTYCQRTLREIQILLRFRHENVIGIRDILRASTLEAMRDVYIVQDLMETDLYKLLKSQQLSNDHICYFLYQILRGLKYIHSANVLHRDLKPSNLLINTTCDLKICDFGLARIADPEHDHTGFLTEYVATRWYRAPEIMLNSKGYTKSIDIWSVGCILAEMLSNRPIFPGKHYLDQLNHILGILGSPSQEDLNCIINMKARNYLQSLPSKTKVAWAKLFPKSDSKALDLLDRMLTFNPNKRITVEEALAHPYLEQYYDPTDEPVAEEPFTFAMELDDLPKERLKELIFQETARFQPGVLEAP
Method: as §1

[4] = test system: cytokine secretion from LPS-stimulated human monocytes; test: Human monocyte cytokine secretion assay (LPS); format: cell-based
Method: Peripheral blood from healthy human volunteers was collected and the monocytes isolated via Ficoll-paque density centrifugation. […] The cells were allowed to pre-incubate with test compound at the indicated concentration for 30 minutes (37° C., 5% CO2, humidified air); after which the supernatant was removed and media containing compound and 1 ng/mL LPS was added. Cells were allowed to incubate with compounds and LPS for 4 hours at 37° C. after which the supernatant was removed and stored at −80° C. Cytokine concentrations in the supernatant were determined using commercially available Bio-Rad Bio-plex™ kits according the manufacturer's instructions.

[5] = rat, oral, 20-30 μmol/kg, plasma, mean of n = 3

NCc1cccc(CN2CCC[C@@H](Nc3ccc4[nH]ncc4c3)C2)c1 [Compound 1.235, (R)-N-(1-(3-(aminomethyl)benzyl)piperidin-3-yl)-1H-indazol-5-amine]
log10AUC (penh) ([1]; 15 μmol/kg intraperitoneal): 1.9362

Cc1ccc(CN2CC[C@@H](Nc3cccc4cnccc34)C2)cc1 [Compound 2.025, (R)-N-(1-(4-methylbenzyl)pyrrolidin-3-yl)isoquinolin-5-amine]
Percentage of carbachol-induced contraction at 1 μM compound, Avg % (rat trachea rings): 33.3% | Trachael Ring Contraction, % (rat trachea rings): 33% | log10AUC (penh) ([1]; 15 μmol/kg intraperitoneal): 1.9667

OCCOc1cccc(CN2CCC[C@@H](Nc3ccc4[nH]ncc4c3)C2)c1 [Compound 1.092, (R)-2-(3-((3-(1H-indazol-5-ylamino)piperidin-1-yl)methyl)phenoxy)ethanol]
Percentage of carbachol-induced contraction at 1 μM compound, Avg % (rat trachea rings): 67.7% | Percentage of carbachol-induced contraction at 10 μM compound, Avg % (rat trachea rings): −2.9% | IC50 (rat trachea rings; Rattus norvegicus): 453 nM | Vz_F [2, 5]: 19.0 L/kg

C[C@@H](N)[C@H]1CC[C@H](C(=O)Nc2ccncc2)CC1 [Compound Y-27632, reference compound]
Percentage of carbachol-induced contraction at 1 μM compound, Avg % (rat trachea rings): 83.7% | Percentage of carbachol-induced contraction at 10 μM compound, Avg % (rat trachea rings): 23.4% | IC50 (rat trachea rings; relaxation of 1 μM carbachol precontracted rat tracheal rings): 4780 nM | log10AUC (penh) ([1]; 30 μmol/kg oral): 2.0135

Cc1ccc(CN2CCC[C@@H](Nc3ccc4[nH]ncc4c3)C2)cc1OCCO [Compound 1.161, (R)-2-(5-((3-(1H-indazol-5-ylamino)piperidin-1-yl)methyl)-2-methylphenoxy)ethanol]
Percentage of carbachol-induced contraction at 1 μM compound, Avg % (rat trachea rings): 40.3% | Trachael Ring Contraction, % (rat trachea rings): 40% | log10AUC (penh) ([1]; 15 μmol/kg intraperitoneal): 1.9042 | airway hyperreactivity [3]: prevention of airway hyperreactivity | Percent inhibition, ERK2 (ERK2; 1 μM test compound): 104% | Percent inhibition, ERK2 (ERK2; 10 μM test compound): 92%

CCc1ccc(CN2CCC[C@@H](Nc3ccc4[nH]ncc4c3)C2)cc1 [Compound 1.136, (R)-N-(1-(4-ethylbenzyl)piperidin-3-yl)-1H-indazol-5-amine]
Percentage of carbachol-induced contraction at 1 μM compound, Avg % (rat trachea rings): 45.0% | Percentage of carbachol-induced contraction at 10 μM compound, Avg % (rat trachea rings): 19.7% | IC50 (rat trachea rings; Rattus norvegicus): 861 nM | Trachael Ring Contraction, % (rat trachea rings): 45% | log10AUC (penh) ([1]; 15 μmol/kg intraperitoneal): 2.1379 | log10AUC (penh) ([1]; 15 μmol/kg oral): 2.2490 | reduction in airway hyperresponsiveness ([1]; i.p. route, compared to oral dosing): enhanced reduction | reduction in airway hyperresponsiveness ([1]; oral doses): did not yield a significant reduction | oral bioavailability ([2]; oral dosing): poor oral bioavailability | AUC (0-last) [2, 5]: BLQ | Cmax [2, 5]: BLQ | Tmax [2, 5]: BLQ | Vz_F [2, 5]: BLQ | t½ [2, 5]: BLQ

NC(=O)Cn1ccc2cc(CN3CCC[C@@H](Nc4ccc5[nH]ncc5c4)C3)ccc21 [Compound 1.162, (R)-2-(5-((3-(1H-indazol-5-ylamino)piperidin-1-yl)methyl)-1H-indol-1-yl)acetamide]
Percent inhibition, ERK1 (ERK1; 1 μM test compound): 84% | Percent inhibition, ERK1 (ERK1; 10 μM test compound): 50% | Percentage of carbachol-induced contraction at 1 μM compound, Avg % (rat trachea rings): 34.4% | Trachael Ring Contraction, % (rat trachea rings): 34% | log10AUC (penh) ([1]; 15 μmol/kg intraperitoneal): 1.7001 | Percent inhibition, ERK2 (ERK2; 1 μM test compound): 89% | Percent inhibition, ERK2 (ERK2; 10 μM test compound): 60%

Cc1ccc(CN2CC[C@@H](Nc3cccc4cnccc34)C2)cc1OCCO [Compound 2.064, (R)-2-(5-((3-(isoquinolin-5-ylamino)pyrrolidin-1-yl)methyl)-2-methylphenoxy)ethanol]
IL-1β % ([4]; 4 h, 10 µM): 14.3% | IL-6, % ([4]; 4 h, 10 µM): 45.7% | TNF-α % ([4]; 4 h, 10 µM): 66.2% | IL-1β % ([4]; average percent of stimulated IL-1β secretion from human monocytes at 10 μM of test compound): 14.3% | IL-6, % ([4]; average percent of stimulated IL-6 secretion from human monocytes at 10 μM of test compound): 45.7% | TNF-α % ([4]; average percent of stimulated TNF-α secretion from human monocytes at 10 μM of test compound): 66.2%

NS(=O)(=O)c1cccc(CN2CCC[C@H](Nc3ccc4[nH]ncc4c3)C2)c1 [Compound 1.215, (S)-3-((3-(1H-indazol-5-ylamino)piperidin-1-yl)methyl)benzenesulfonamide]
Percentage of carbachol-induced contraction at 1 μM compound, Avg % (rat trachea rings): 40.6% | Trachael Ring Contraction, % (rat trachea rings): 41% | log10AUC (penh) ([1]; 15 μmol/kg intraperitoneal): 2.0081

From US20130172324A1, “METHOD FOR TREATING CARDIOVASCULAR DISEASES USING RHO KINASE INHIBITOR COMPOUNDS” (priority 2008, published 2013)
